{"source": "patent US11964970B1", "about": "“7-(4-((5-(3-bromobenzylideneamino)-2-thioxo-1,3,4-thiadiazol-3(2H)-yl)methyl)piperazin-1-yl)-1-cyclopropyl-6-fluoro-4-oxo-1,4-dihydroquinoline-3-carboxylic acid as an anti-inflammatory and anticancer compound” (KING FAISAL UNIVERSITY, priority 2023, dated 2024)", "key": {"[1]": {"test_system": "human osteosarcoma cells (MG-63)", "test": "Assessment of cytotoxicity by SRB assay, MG-63", "format": "cell-based", "conditions": "osteosarcoma (MG-63) cells, 72 h, 0.01 μM to 100 μM", "protocol": "(§1) The human prostate cancer cells (PC3) and human osteosarcoma cells (MG-63) were obtained from Nawah Scientific Inc. (Mokatam, Cairo, Egypt) and cultured in DMEM (Dulbecco's modified eagle's medium), Gibco, USA, supplemented with fetal bovine serum (FBS) at a concentration of 10% and 100 U/mL of penicillin and streptomycin (PS). The Cells were incubated at 37° C. in a humidified environment that contained 5% CO2.\n(§2) Cells were seeded in 96-well plates as aliquots of 100 μL cell suspension and incubated in a complete media for 24 h. afterward, cells were treated with N′-(1-naphthoyloxy)-2-(benzo[d]thiazol-2-yl)acetimidamide at diverse concentrations ranging from 0.01 μM to 100 μM for 72 h. Then, cells were fixed at 4° C. for one hour with 150 μL of 10% trichloroacetic acid (TCA). After washing the cells five times with distilled water, 70 μL of sulforhodamine (SRB) solution (0.4% w/v) was added and incubated for 10 min at room temperature in a dark place. […] Then, 150 μL of Tris pH 10.5 (10 mM) was added, and the absorbance was measured at 540 nm using a BMG LABTECH®-FLUOstar Omega microplate reader (Ortenberg, Germany). Half maximal inhibitory concentrations (IC50) values were calculated for each experiment using GraphPad Prism 6 software. […]\n(§3) The inhibition was calculated using the following equation: Inhibition %=100−Average Viability"}, "[2]": {"test_system": "human prostate cancer cells (PC3)", "test": "Assessment of cytotoxicity by SRB assay, PC3", "format": "cell-based", "conditions": "androgen-independent metastatic human prostate cancer cells (PC3), 72 h, 0.01 μM to 100 μM", "protocol": "as §1, §2, §3"}, "[3]": {"molecular_target": "Bovine Serum Albumin (Bos taurus, UniProt P02769)", "sequence (P02769 25-607)": "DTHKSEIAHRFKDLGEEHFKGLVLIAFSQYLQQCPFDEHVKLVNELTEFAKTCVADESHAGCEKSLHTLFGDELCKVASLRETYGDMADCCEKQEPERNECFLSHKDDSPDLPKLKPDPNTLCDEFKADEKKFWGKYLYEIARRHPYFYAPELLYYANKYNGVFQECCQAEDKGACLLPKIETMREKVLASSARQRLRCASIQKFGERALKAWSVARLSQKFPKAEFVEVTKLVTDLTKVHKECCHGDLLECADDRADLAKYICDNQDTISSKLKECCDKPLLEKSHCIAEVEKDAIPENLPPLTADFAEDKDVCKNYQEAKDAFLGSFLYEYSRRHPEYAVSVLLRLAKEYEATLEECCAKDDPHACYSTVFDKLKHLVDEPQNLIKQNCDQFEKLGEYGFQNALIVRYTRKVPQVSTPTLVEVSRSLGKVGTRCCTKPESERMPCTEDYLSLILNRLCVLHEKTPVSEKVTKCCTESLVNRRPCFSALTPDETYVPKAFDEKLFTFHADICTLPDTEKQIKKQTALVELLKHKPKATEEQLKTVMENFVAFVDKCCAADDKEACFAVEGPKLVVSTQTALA", "test": "Bovine Serum Albumin Assay (BSA), inhibition of protein denaturation", "format": "biochemical", "conditions": "BSA 0.4% w/v, pH 6.4, 72° C. for 10 minutes, 20-100 μg/mL, turbidity at 660 nm", "protocol": "In vitro-inflammatory activities of the tested samples were determined using a modified method of the BSA assay reported by Williams et al. BSA solution (0.4%, w/v) was prepared in Tris Buffered Saline. The pH was adjusted to 6.4 with glacial acetic acid. Different dilutions of 20, 40, 60, 80, and 100 μg/mL of the stock solutions were added to test tubes containing 1 mL of 0.4%, w/v BSA buffer solution. Both negative (solvent) and positive (aspirin) controls were assayed in a similar manner. The solutions were then heated in a water bath at 72° C. for 10 minutes and cooled for 20 minutes under laboratory conditions. The turbidity of the solutions (level of protein precipitation) was measured at 660 nm in Spectrophotometer (V-770 UV-Visible/NIR Spectrophotometer).\nThe percentage inhibition of precipitation (protein denaturation) was determined relative to the negative control using the following equation:\n[formula] % Anti-Denaturation Activity=% Inhibition of Protein Denaturation=% Anti-inflammatory Activity"}}}
{"compound": "O=C(O)c1cn(C2CC2)c2cc(N3CCN(Cn4nc(/N=C/c5cccc(Br)c5)sc4=S)CC3)c(F)cc2c1=O", "note": "[7-(4-((5-(3-bromobenzylideneamino)-2-thioxo-1,3,4-thiadiazol-3(2H)-yl)methyl)piperazin-1-yl)-1-cyclopropyl-6-fluoro-4-oxo-1,4-dihydroquinoline-3-carboxylic acid]", "values": [{"measurement": "antiproliferative activity against MG-63 cells", "setting": "[1]", "value": "excellent antiproliferative activities"}, {"measurement": "melting point", "value": "251 to 253", "unit": "°C"}, {"measurement": "antiproliferative activity against PC3 cells", "setting": "[2]", "value": "excellent antiproliferative activities"}, {"measurement": "in vitro anti-inflammatory activity (inhibition of protein denaturation)", "setting": "[3]", "value": "considerable anti-inflammatory effect"}]}
